Measurements from patent US12178838B2, “Synthetic neuromodulatory peptides” (Lactocore, Inc., priority 2019, dated 2024).

What was measured:
Assay type in all cases: in vivo
[1] = test system: zebrafish (Danio rerio); test: Light/dark box test in zebrafish; conditions: ip
Method: The tested substances were injected into the zebrafish intraperitoneally (ip) using an insulin syringe (0.5 ml, 30 g) 10 minutes before the test. The saline solution (0.9% NaCl) was used as a solvent. Anesthesia and immobilization of the animals were achieved by placing them in water at a temperature of 10° C. Control group fish received intraperitoneal injections of an equivalent volume of solvent, also after going through a pre-cooling procedure.
A base, back, and side walls of the aquarium were made of matte black plastic; the front panel (shorter wall) was made of transparent Plexiglas. The setup for the Light/Dark preference test consisted of three main parts: a launch compartment, a light compartment made of white plastic, and a dark compartment made of black plastic. The bright lighting in these tests was provided by a lamp on a stand (LED lamp PL, 11 W, light flux≈600 Lm, about 500 Lx directly above the water surface), which was attached to the upper part of the aquarium.
The light/dark box (LDB) test was performed as described in Maximino et al., 2011. The zebrafish was placed in a light compartment of an LDB using a net, the camera was switched on simultaneously, and the behavior of the zebrafish was recorded for 5 minutes. The video was processed using RealTimer (OpenScience). During the processing of records, the residence time and the number of visits to the light and dark compartments of the test setup were recorded, as well as the latent period of visiting both compartments.

[2] = test system: Wistar rats after chronic unpredictable mild stress; test: CUMS model: Porsolt forced swimming test; conditions: FQSE 0.05 mg/kg i.n.; Diazepam 0.5 mg/kg i.p.; 18 injections
Method: During stress, the animals were placed in individual cells and exposed to stressful conditions each day for 26 days. Two stressors were used daily, applied in the following order: • Day 1. 10 am-6 pm, rats were placed in a cold room for an hour. From 6 PM to 10 am the lights were turned on and off every 2 hours. • Day 2. 10 am-6 pm, cage tilted to 45°. From 6 PM to 10 am water deprivation. • Day 3. 10 am-6 pm, stroboscopic light. From 6 PM to 10 am the light was left on overnight. • Day 4. 10 am-6 pm, wet bedding. From 6 PM to 10 am the animals were put in a small mouse cage. • Day 5. 10 am-6 pm, no bedding. From 6 PM to 10 am the lights were turned on and off every 2 hours. • Day 6. 10 am-6 pm, a new rat was placed in the cage (6-month-old). From 6 PM to 10 am the light was left on overnight. • Day 7. 10 am-6 pm, white noise. From 6 PM to 10 am a stroboscopic light was turned on at night. • Day 8-26. Repetition of previously used stressors in the specified sequence. […]
The forced swim test is a rodent behavioral test used for the evaluation of antidepressant drugs, antidepressant efficacy of new compounds, and experimental manipulations that are aimed at rendering or preventing depressive-like states. […] In the last 6 minutes, the duration of active (vigorous movement of all limbs) and passive (weak strokes of the hind limbs) swimming and immobility duration were recorded. […]

[3] = test system: BALB/C mice; test: Marble Burying test in mice; conditions: ip; Diazepam 0.75 mg/kg; FQSE 5 mg/kg; 30 minutes
Method: After an adaptation period, the test substance was intraperitoneally injected into mice. Behavioral parameters were measured in 30 minutes after injection. The tests were administered as follows: day 1—the Open field test, day 3—the Elevated plus maze test, day 5—the Marble burying test, days 12-13—the Porsolt swim (two-day modification) test.
In the marble burying test, the installation is a standard T3 cage (19 cm×29 cm×13 cm) filled with bedding material. The standard glass marbles (15 mm in diameter, weight 5.2 g, arbitrary color) were used for the test. Twenty marbles were evenly spaced on the surface in 4 rows, 5 pieces each. The animal was placed in the testing cage for 30 minutes. At the end of the period, after the animal was carefully removed, the number of marbles that were more than two-thirds covered with bedding material was counted.
All substances were injected intraperitoneally in a volume of 10 μl of solution per 1 gram of animal weight 30 minutes prior to behavioral testing.

[4] = test system: Wistar rats after chronic unpredictable mild stress; test: CUMS model: Novelty Suppressed Feeding Test
Method: (§1) During stress, the animals were placed in individual cells and exposed to stressful conditions each day for 26 days. Two stressors were used daily, applied in the following order: • Day 1. 10 am-6 pm, rats were placed in a cold room for an hour. From 6 PM to 10 am the lights were turned on and off every 2 hours. • Day 2. 10 am-6 pm, cage tilted to 45°. From 6 PM to 10 am water deprivation. • Day 3. 10 am-6 pm, stroboscopic light. From 6 PM to 10 am the light was left on overnight. • Day 4. 10 am-6 pm, wet bedding. From 6 PM to 10 am the animals were put in a small mouse cage. • Day 5. 10 am-6 pm, no bedding. From 6 PM to 10 am the lights were turned on and off every 2 hours. • Day 6. 10 am-6 pm, a new rat was placed in the cage (6-month-old). From 6 PM to 10 am the light was left on overnight. • Day 7. 10 am-6 pm, white noise. From 6 PM to 10 am a stroboscopic light was turned on at night. • Day 8-26. Repetition of previously used stressors in the specified sequence.
(§2) Experimental substances were administered daily starting from the 58-59 day of the experiment. The administration took place 30 minutes before the start of behavioral testing. On days when there were no tests, the substances were administered in the morning.
To assess anxiety and food motivation, a test for eating behavior in a new environment was used. […] The time to start eating and the duration of consumption were recorded. […]

[5] = test system: Wistar rats after chronic unpredictable mild stress; test: CUMS model: Elevated Plus Maze test
Method: as §1, §2
The Elevated Plus Maze test was used to assess the level of anxiety, motor, and exploratory activity of laboratory animals. The apparatus consisted of two closed and two open arms opposite to each other (arm's length 45 cm) with the height of the sides of the closed arm −10 cm. The entire installation was raised on a stand 70 cm above the base. Rats were placed in the center of the maze with their heads facing the open arm. Within 5 minutes the number of exits to open arms and time spent in them, the number of transitions between arms, the time of rest, the duration and number of grooming acts, the number of stretch-attend postures into the open arms of the maze, and the number of rears were recorded. Normally, rodents tend to stay in the dark arms.

CN1C(=O)CN=C(c2ccccc2)c2cc(Cl)ccc21 [Diazepam]
time spent in the light compartment ([1]; diazepam 5 mg/kg, FQSE 10 mg/kg, WDQV 10 mg/kg): increased dramatically | number of transitions between the light and dark compartments ([1]; diazepam 10 mg/kg): increase | time of the first exit (latent period) to the light chamber ([1]; diazepam 10 mg/kg): decrease | immobilization time [2]: did not differ | number of marbles buried [3]: 1.2±0.39 | result obtained in NSFT (11 administrations) ([4]; CUMS, FQSE 0.5 mg/kg, Diazepam): anxiolytic effect | latency to start eating ([4]; FQSE 0.5 mg/kg i.n., diazepam 0.5 mg/kg i.p., 11 days): significant decrease in latency | result obtained in EPM (1 administration) ([5]; CUMS, FQSE 0.5 mg/kg, Diazepam): sedative effects | time spent on the open arms ([5]; Diazepam 0.5 mg/kg i.p., 1 injection, vs stressed animals treated with solvent): increase | freezing time ([5]; Diazepam 0.5 mg/kg i.p., vs control group): increase of freezing
